Values after ≈ are worked out from the molar mass of the structure shown. Like-named read-outs stand apart in the source and are kept apart here.
How the values were obtained:
[1] = Visual observation of the solubility of DMPZ in various solvents (color change, naked eye); format: physicochemical; details: FIG. 3; for solubility: organic solvent or mixture, read-out: solubility (concentration dissolved)
From the text: DMPZ was respectively dissolved in various solvents, and color changes in the solutions were examined with the naked eye to evaluate dissolution degrees.

[2] = Analysis of solubility of positive active material in the electrolyte during cycle (electrode washed with new electrolyte, color; UV-visible spectroscopy); format: physicochemical; details: FIG. 7
Description: Each cell of Comparative Example 1 and Examples 1 and 2 was checked regarding how much the positive active materials were dissolved when the electrodes were taken out during the charge and washed with a new electrolyte, and the results are shown in FIG. 7.
FIG. 8 is a graph quantitatively analyzing amounts of DMPZ dissolved in each electrolyte of Comparative Example 1 and Examples 1 and 2. The cycled DMPZ electrode was re-wetted in the electrolyte, and ultraviolet (UV)-visible ray spectroscopy was performed with respect to solutions in each of the DMPZ^+ and DMPZ^2+ states to measure areas of an absorption spectrum and thus obtain each amount of DMPZ^+ and DMPZ^2+ dissolved out in the electrolyte. In FIG. 8, a vertical axis indicates the DMPZ state according to SOC, while a horizontal axis indicates a weight change as solubility (%). In FIG. 8, Comparative Example 1 is shown on the right, Example 1 is in the middle, and Example 2 is on the left.

solubility ([1]; dimethyl carbonate (DMC)): ≥ 100 mM
solubility ([1]; propylene carbonate (PC)): ~20 mM (≈ 4.21 mg/mL)
solubility ([1]; tetraethylene glycol dimethyl ether (TEGDME)): ≥ 100 mM
solubility in the electrolyte during the cycles ([2]; Comparative Example 1 electrolyte: 1 M NaClO4 in TEGDME, DMPZ, DMPZ+ (SOC 50) and DMPZ2+ (SOC 100)): high solubility
solubility in the electrolyte during the cycles ([2]; Example 1 electrolyte: 1 m NaClO4 and 0.5 m Zn(CF3SO3)2 in water, charged DMPZ (DMPZ+, DMPZ2+)): slightly dissolved
solubility in the electrolyte during the cycles ([2]; Example 2 electrolyte: 17 m NaClO4 and 0.5 m Zn(CF3SO3)2 in water, DMPZ, DMPZ+ and DMPZ2+): not dissolved at all
SMILES: CN1c2ccccc2N(C)c2ccccc21 [DMPZ, 5,10-dihydro-5,10-dimethylphenazine]
solubility (dissolution) ([1]; water solvent): not dissolved in the water solvent at all

From US12725802B2, “Aqueous rechargeable battery including organic positive active material” (Seoul National University R&DB Foundation, priority 2021, dated 2026)
